Experimental data from patent publication US8574914B2, “Methods for mobile zinc measurement” (The General Hospital Corporation, priority 2009, dated 2013).

Assay: fluorescent zinc titration of ZPP1, fit to two-step binding model
Description: Since ZPP1 contains two zinc-binding units, the following stepwise equilibria describe the binding events.
Two apparent binding constants, (K1app=1.52×10^11 M^−1, K2app=1.02×10^8 M^−1) were obtained by fitting the experimental data to the two-step model with high fidelity.

[1] = fluorescence titration, two-step model fit

apparent binding constant K1app (first step zinc binding) [1]: 1.52e+11 M⁻¹
apparent binding constant K2app (second step zinc binding) [1]: 1.02e+08 M⁻¹
zinc equivalents at which fluorescence intensity reaches its maximum (state B): ~2 equiv
fluorescence response on addition of up to 1 equiv of zinc (up to 1 equiv zinc (state A)): only a slight fluorescence increase
SMILES: O=C(O)c1ccccc1-c1c2cc(Cl)c(=O)c(CN(Cc3ccccn3)Cc3cnccn3)c-2oc2c(CN(Cc3ccccn3)Cc3cnccn3)c(O)c(Cl)cc12 [ZPP1]
